Bounds are passed on as bounds.

Usually melting point stands for the temperature of the solid-liquid transition. With `CCc1nc2c(N)nc3cccnc3c2n1CCCCCC(=O)N1CCOCC1`, the melting point lay within 163 to 165 °C. As to `Cc1nn(C)c(C2=NCCN2)c1[N+](=O)[O-]`, the melting point fell in the range of 143 to 145 °C.

Regarding `NC(=O)N(O)CC1CCC1`, the melting point was 112 to 113 °C.

The molecule `COc1ccc(Cl)cc1[C@]1(F)C(=O)N(C(=O)N[C@H](C(=O)O)C(C)C)c2cc(C(F)(F)F)ccc21` yielded a melting point of 100 to 104 °C. As for `CC(c1cccc(NC(=O)NC2N=C(c3ccccc3F)c3ccccc3N(CC(=O)N3CC4CCC(CC4)C3)C2=O)c1)S(=O)(=O)O` (racemic), the melting point is more than 250 °C.

Molecule `CCCCc1ccc(C(=O)CCCn2ccnc2)cc1` displayed a melting point of 125 to 128 °C. In turn, `CCC(=O)NCC1CCC(Nc2nc3c(s2)CCOc2ccccc2-3)CC1` (centres undefined) gave a melting point of 56 to 60 °C. `C[C@@H]1Cc2ccsc2[C@H](C)N1CCCNS(=O)(=O)c1ccc(N)cc1` (relative stereo) gave a melting point of 134 to 138 °C. The figure for `CCCN(CCC)Cc1csc(-c2ncn3c2CN(C)C(=O)c2cc(F)ccc2-3)n1` is 134 to 136 °C; for `C=CCOc1ccc(C=CC(=O)c2c(O)cc(OC)cc2OC)cc1` it is 112 °C.

In turn, `CC(=O)O[C@H]1CC[C@H](c2ccc(C#N)cc2)CC1` gave a melting point of 130 to 131 °C. The figure for `CC(C)(C)c1ccn(-c2ccc(C(=O)c3cccc4c3Nc3ncccc3CN4)c(C(F)(F)F)c2)n1` is 136 to 140 °C. Turning to `Cn1nc(-c2ccc(NN=C(CCC(=O)O)c3ccc(O)cc3O)cc2)ccc1=O`, the melting point fell in the range of 138 to 141 °C. On to `CC1Cc2ccccc2C(=O)C1n1ccnc1` (centres undefined), for which the melting point lay within 153 to 155 °C. For the molecule `CCCS(=O)(=O)N(C)CCc1ccncc1`, the melting point lay in the range of 109 to 110 °C.

In the case of `Cn1cc(C2=C(c3cn(C)c4ccccc34)C(=O)NC2=O)c2ccccc21`, the melting point was more than 300 °C.

With `CCOC(=O)CCCCCOc1ccc(-c2nc(=O)c3ccccc3s2)cn1`, the melting point was in the range of 73.6 to 73.9 °C.

For `c1cc(C2CCCCC2)ccc1N=C1NCCCN1`, the melting point lay within 179 to 181 °C. Regarding `CC1CC(=Cc2ccccc2OCC(O)CN2CCC(c3ccc4ccccc4c3)CC2)C(=O)O1` (centres undefined), the melting point fell in the range of 142 to 144 °C. As for `COc1cccc2c1OC(COS(=O)(=O)c1ccc(C)cc1)CC2` (centres undefined), the melting point fell in the range of 115 to 117 °C. For `COc1ccc(C2=C(OC(C)=O)C(=O)Nc3ccc(Cl)cc3S2)cc1`, the melting point was in the range of 236 to 238 °C.

`CC1(C)OC(=O)N(C(=O)/C=C/c2ccccc2)[C@@H]1c1ccccc1` registered a melting point of 149 °C. With `CNC(=O)[C@@H]1C[C@@H](Oc2ccccc2)CN1S(=O)(=O)c1ccc(Cl)c(COc2cccc3c(-n4ccnc4)cc(C)nc23)c1Cl`, the melting point was 97 °C. The figure for `COC(=O)CC1CC(c2ccc(C#N)nc2)=NO1` (centres undefined) is 115 to 116 °C; for `CC1(C)CCC(C)(C)C1OS(C)(=O)=O` it is 46 °C; for `CC(C)(OCc1nn(C(=O)c2ccccc2)c2ccccc12)C(=O)O` it is 132 to 135 °C. As to `CCc1ccc2[nH]c(=O)oc(=O)c2c1`, the melting point is 178 to 181 °C. Then `O=C(O)C(=O)CC(=O)c1cccn1Cc1cc(F)cc(F)c1`, with 166 to 168 °C; and `O=S(=O)(Nc1cccc2cc(-c3ccccn3)[nH]c12)c1cccs1`, with 161 to 162 °C. Turning to `COc1ccc(C(O)c2sccc2C=O)cc1OC` (centres undefined), the melting point was 90 to 91 °C. `CCc1c(Oc2cc(C)cc(C)c2)n(C/C=C/CO)c(=O)[nH]c1=O` displayed a melting point of 125 to 126 °C. Take `CC(=O)Nc1ccc(OC(=O)c2ccc(COC(=O)OC(C)O[N+](=O)[O-])cc2)cc1` (centres undefined): the melting point is 149 to 152 °C. With `CC(C)(C)Nc1c([N+](=O)[O-])cc([N+](=O)[O-])c2nc(C(F)(F)F)[nH]c12`, the melting point lay in the range of 177 to 188 °C.

As for `Cn1cc(C(=O)NCc2ccc(Cl)cc2)c(=O)c2cc(C#CCO)sc21`, the melting point lay in the range of 206 to 208 °C. `O=C1C2C[C@@H](OCc3ccccc3)CN2C(=O)N1c1ccc([N+](=O)[O-])c2ccccc12` (some centres undefined) returned a melting point of 120 to 122 °C. Then `CCCN1CCNC1=C[N+](=O)[O-]`, with 147 to 148 °C. `CCn1c(=O)c(-c2c(Cl)cccc2Cl)cc2cnc(Nc3cc(OC)c(OC)c(OC)c3)nc21` showed a melting point of 275 to 278 °C. Turning to `CC(=O)O[C@H]1C[C@@H](n2ccc(=O)cc2)[C@H](O)[C@@H]1O` (racemic), the melting point is 191 to 196 °C. Then `CCOC(=O)c1ccc(CCN2CCN(C(=O)Cc3ccc(Cl)cc3)CC2)cc1`, with 88 to 89 °C; and `Cc1cccc(-c2[nH]c(C(C)C)nc2-c2cccc(-c3ccc(S(=O)(=O)N(C)C)cc3)c2)n1`, with 93 to 96 °C. For `COc1cccc(C#N)c1C`, the melting point is 47 to 48 °C.

The molecule `O=C(Nc1cccc(C(F)(F)F)c1)OCC1(COC(=O)Nc2cccc(C(F)(F)F)c2)CSc2ccccc2C1=O` had a melting point of 58 to 63 °C. Take `COc1ccc(C=CC=O)cc1OCc1nc(-c2ccccc2)oc1C`: the melting point lay in the range of 136 to 137 °C. Consider `CC(C)(N)c1ccc(-c2nc(Nc3cccc(CCO)c3)ncc2Cl)cc1`, for which the melting point fell in the range of 184 to 185 °C.

`CC(C)(C)OC1OC(=O)CC(C)(C)C1OS(C)(=O)=O` (centres undefined) showed a melting point of 64 °C. `CCCC(=O)c1cnc2ccc(COCc3ccccc3)cc2c1Cl` registered a melting point of 85 to 86 °C. Then `C=C=C(C)C1Oc2cccc(OC)c2-c2ccc3c(c21)C(C)=CC(C)(C)N3` (centres undefined), with 59 to 63 °C; and `CN1C(=O)CCN(c2ccc(C(F)(F)F)cc2)C1=O`, with 115 to 117 °C. Consider `O=C1CCC2=C1C(c1ccc([N+](=O)[O-])s1)C1=C(CCS1)N2` (centres undefined), for which the melting point lay within 251 to 254 °C. Then `O=C(NC1CCN(C/C=C\CC(c2ccccc2)c2ccccc2)CC1)c1ccccc1Oc1ccccc1`, with 91 to 94 °C. Then `CN1OCN=C1c1nn(-c2c(Cl)cc(C(F)(F)F)cc2Cl)c(N)c1S(=O)C(F)(F)F` (centres undefined), with 165 to 167 °C. As for `CCSc1nc2c(C(=O)OC)sc(-c3ccccc3)c2[nH]1`, the melting point was in the range of 214 to 215 °C. `CCC(C)(CC)c1ccc(N)nn1` showed a melting point of 56 to 58 °C. `CC12CCC(=O)C=C1CCC1C2CCC2(C)C1CCC2(OC=O)C(=O)CCl` (centres undefined) had a melting point of 202 °C. For `CCCCCCNC(=O)[C@@H]1CCC(=O)N1`, the melting point worked out at 95 °C. With `Cc1ccc(CN2CCN(c3cc(-c4ccccc4)ccn3)CC2)cc1`, the melting point was determined as 103 °C. The figure for `COc1cccc(-c2nc(-c3ccccc3)c3ncc(-c4csc5ccccc45)cc3n2)c1` is 112 to 113 °C; for `Cc1cc(F)ccc1-c1nc(N[C@H]2CC[C@H](O)CC2)nc2c1ccc(=O)n2-c1ccccc1F` it is 148 to 151 °C.

On to `O=C1C(Cc2ccccc2)N(c2ccc(Oc3ccccc3)cc2)C(=S)N1c1ccccc1` (centres undefined), for which the melting point is 130 °C. Take `COCOc1ccc(C=CC(=O)c2c(OC)cc(OC)c(CC=C(C)C)c2O)cc1OC`: the melting point was 126 to 127 °C. Take `COc1ccc(C(=O)c2ccco2)cc1OC`: the melting point lay in the range of 112 to 114 °C. The figure for `CN(C)C=CC(=O)c1cccnn1` is 102 to 105 °C.

For the molecule `COC(=O)CSC(C)c1ccc(-c2ccc(OC)cc2)cc1` (centres undefined), the melting point lay in the range of 59 to 61 °C. In the case of `CCc1c(C#N)oc(=O)n1S(=O)(=O)c1c(C)noc1C`, the melting point lay in the range of 117 to 122 °C.

The molecule `COc1ccc(C(=O)Nc2c(Cl)cncc2Cl)c2c3cc([N+](=O)[O-])ccc3n(C)c12` displayed a melting point of more than 250 °C.

In turn, `O=[N+]([O-])c1ccc(Sc2ccccc2)c(CCl)c1` came in with a melting point of 58 to 60 °C. Molecule `c1ccc2[nH]c(CN3CCN(c4nccs4)CC3)nc2c1` came in with a melting point of 203 to 205 °C. The figure for `CC1CCNC(C)C1(C)CCCO` (centres undefined) is 89 to 91 °C.

`O=C1N(O)CC12CCOc1cc(Cl)c(Cl)cc12` (centres undefined) showed a melting point of 157 to 158 °C.

`COc1cc(CCNC(=O)[C@@H](NS(C)(=O)=O)C(C)C)ccc1OCC#Cc1ccccc1`: the melting point lay in the range of 130 to 132 °C. In the case of `CC(C)CCC1(CCc2ccccc2)CC(O)=CC(=O)O1` (centres undefined), the melting point lay within 99 to 100 °C. Then `CCOC(=O)Cc1c(C)nc(Nc2nc3cc(C)c(C)cc3[nH]2)nc1O`, with more than 300 °C; and `O=C(Nc1ccnc(C(=O)NO)c1)c1ccccc1`, with 175 to 184 °C; and `O=C(O)CCCCCCCCCCC(=O)CCC(=O)O`, with 117 to 118 °C.

Regarding `CNC(=O)c1cnn(C2(C)CCCC2)c1C#N`, the melting point was 139 to 141 °C.

For `CCCCCN1C(=O)C2(COc3cc4c(cc32)OCO4)c2ccccc21` (centres undefined), the melting point was 85 to 87 °C. As for `COc1cc2c(cc1OC)C(CSc1nnnn1C)NCC2` (centres undefined), the melting point is 96 to 99 °C. In the case of `CC(=O)N1CCC2(c3ccccc3)OC2C1` (centres undefined), the melting point lay within 68 to 71 °C. `c1csc(-c2ccc(-c3cn([C@H]4CN5CCC4CC5)nn3)cc2)c1` had a melting point of 214 °C.

Molecule `CCOC(=O)C(=O)c1cc(Cl)cc2cccnc12` displayed a melting point of 107 to 110 °C. Then `Cc1cccc(-c2nc3ccc(Cl)nn3c2-c2ccnc(NC3CCCCC3)c2)c1`, with 191 to 192 °C; and `CN1CC(CCC#N)Oc2ncccc2C1=S` (centres undefined), with 155 to 156 °C.

`CCCn1nc2c(-c3ccccc3)cccc2c1-c1ccc(OC)cc1` yielded a melting point of 128 to 129 °C. As to `Cc1ccc2c(c1)C1(OCCCO1)C(=O)N2`, the melting point lay within 128 to 130 °C. With `N#Cc1cc(-c2ccc3c(c2)C(C2CC2)(C2CC2)OC(=O)N3)cs1`, the melting point lay within 244 to 245 °C. Regarding `CCCCOCCOc1ccc(-c2ccc3c(c2)C=C(C(=O)Nc2ccc(CSc4nncs4)cc2)CCN3CC(C)C)cc1`, the melting point was 77 to 79 °C.

Molecule `O=C1c2ccccc2CN1c1cccc(CCN2CCN(c3nsc4ccccc34)CC2)c1` gave a melting point of 154 to 155 °C. Regarding `CC(=O)N1CCCC2(Cc3ccc(Br)cc3)C(=O)N(c3cc(Cl)nc(Cl)c3)C(=O)N12` (centres undefined), the melting point amounted to 91 °C. The figure for `Cn1cc(Br)cc(Nc2ccn(CCO[Si](C)(C)C(C)(C)C)n2)c1=O` is 96 to 97 °C.

The record behind these values is a melting point compilation (Tetko et al.; mined from patent text by program, amines drawn as free bases though some values may be those of a salt).
